According to patent US20180228858A1, “A PLANT EXTRACT AND COMPOUNDS FOR USE IN WOUND HEALING” (priority 2014, published 2018):

Legend:
[1] = molecular target: T1, human CYP11B1 (Homo sapiens, UniProt P15538); assay: CYP11B1 assay in V79MZh11B1 cells expressing recombinant human CYP11B1; assay type: cell-based; details: mean ± SD of 2 independent experiments; for % CYP11B1 Inhibition: 10 μM; for inhibition at 1 µM: V79MZh11B1, 1 μM; for inhibition at 10 µM: V79MZh11B1, 10 μM; for inhibition at 100 µM: V79MZh11B1, 100 μM
T1 construct: expressed in transfected cells; host or cells: V79MZh11B1 cell line (V79 hamster fibroblasts by own knowledge)
T1 sequence (P15538 25-503): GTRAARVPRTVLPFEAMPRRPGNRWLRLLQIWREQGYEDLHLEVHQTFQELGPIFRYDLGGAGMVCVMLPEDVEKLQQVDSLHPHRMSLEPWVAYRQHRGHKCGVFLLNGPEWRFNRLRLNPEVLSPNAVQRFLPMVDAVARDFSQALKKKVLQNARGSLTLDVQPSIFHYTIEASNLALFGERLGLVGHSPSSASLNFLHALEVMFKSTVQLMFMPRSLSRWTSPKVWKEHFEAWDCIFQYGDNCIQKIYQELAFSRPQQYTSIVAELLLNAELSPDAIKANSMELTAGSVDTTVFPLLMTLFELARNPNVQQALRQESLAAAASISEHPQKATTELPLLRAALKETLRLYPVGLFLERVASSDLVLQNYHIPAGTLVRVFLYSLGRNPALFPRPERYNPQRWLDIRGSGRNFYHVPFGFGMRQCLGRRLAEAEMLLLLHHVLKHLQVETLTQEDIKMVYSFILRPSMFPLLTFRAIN
Method: Applicant dissolved ˜10 mg of the Salvia m. Bunge extract (as disclosed in WO2009050451) in the required volume of 100% ethanol or 100% DMSO to obtain a 1% (w/v) extract solution. They tested 5 μL of this solution in a 500 μL assay incubation volume (final ethanol or DMSO conc. of 1%). From this 1% Salvia m. Bunge extract solution, they also prepared a 1:10 and 1:100 dilution in 100% ethanol or 100% DMSO. From these solutions, they tested 5 μL in a 500 μL assay incubation volume.
The V79MZh11B1 cell line, expressing recombinant human CYP11B1, was cultured in Dulbecco's modified Eagle (DME, Sigma) medium supplemented with 5% fetal calf serum (FCS; Sigma), penicillin G (100 U/ml), streptomycin (100 μg/ml), glutamine (2 mM) and sodium pyruvate (1 mM) at 37° C. in 5% CO2 in air. Cells were placed on 24-well cell culture plates (8×10^5 cells per well) and cultured in 1 ml DME medium per well until confluence. On the day of testing, DME medium was removed and 450 μl of fresh DMEM, containing 5 μl of the extract solution in 100% ethanol or 100% DMSO, was added to each well. There was no significant difference in CYP11B1 inhibition between DMSO or ethanol as solvent. Control wells (receiving vehicle or ketoconazole (final concentration of 50 nM) as reference compound to validate each experiment) were treated in the same way without extract solution. After 60 min at 37° C. in the CO2 incubator, the reaction was started by the addition of 50 μl of DMEM containing 100 nM of 11-deoxycorticosterone (plus 0.15 μCi of [1,2-^3H] 11-deoxycorticosterone) as substrate. All measurements were in duplicate. After 25 min, the enzyme reaction was stopped by extracting the supernatant with ethyl acetate. Samples were centrifuged (10,000×g, 10 min), and the upper phase was pipetted into fresh cups. The ethylacetate solvent was evaporated and the residue was dissolved in 40 μl of methanol and analyzed by HPLC. The following formulas were used to determine the level of conversion and percentage of enzyme inhibition.
Given the activity of the extract the Applicant looked at the activity of some of the tanshinones using the methodology described in Example 1.

[2] = tested on: V79MZh11B1 cells; assay: MTT cellular viability assay; assay type: cell-based
Method: In order to check that the inhibition was not due to toxicity, a MTT [3-(4,5-dimethylthiazol-2-yl)-2,5-diphenyl-tetrazolium bromide] cellular viability assay was performed in the same cell line under the incubation conditions used in the CYP11B1 screening assay as set out in Example 2 below:
V79MZh11B1 cells were cultured on 24-well cell culture plates (8×10^5 cells per well) in 1 ml DME medium until confluence. On the day of testing, DME medium was removed and 450 μl of fresh DME medium with 5% FCS, containing 5 μl of the Salvia m. Bunge extract solution in 100% ethanol, was added to each well. Ethanol (1%) and Triton® X-100 (0.0006%) were used as vehicle and positive control (all final concentrations), respectively. All measurements were in quadruplicate. After 60 min at 37° C. in a 5% CO2, 50 μl of fresh DME medium (+5% FCS) was added to each well. After 25 min, medium was replaced by 500 μl fresh DME medium (+5% FCS) to which 25 μl of MTT solution (5 mg per ml PBS, pH 7.2) was added immediately. After 30 min, all medium was removed and the cells were lysed in 250 μl of 0.5% acetic acid (v/v), 10% SDS (w/v) in DMSO. Absorbance of formazan was measured spectrophotometrically at 570 nm wavelength

Compound	% CYP11B1 Inhibition [1] [%]	inhibition at 1 µM [1] [%]	inhibition at 10 µM [1] [%]	inhibition at 100 µM [1] [%]	Cell viability (MTT conversion into formazan, 1% ethanol = 100%) ([2]; Experiment 1, final conc. 0.0006%) [%]	Cell viability (MTT conversion into formazan, 1% ethanol = 100%) ([2]; Experiment 2, final conc. 0.0006%) [%]	effect on formazan formation ([2]; positive control, 0.0006%)
Cc1cccc2c3c(ccc12)C1=C(C(=O)C3=O)[C@@H](C)CO1 [Dihydrotanshinone, 15,16-dihydrotanshinone I]	93.6 ± 9.1	43.3 ± 14.7	94	100			
Cc1coc2c1C(=O)C(=O)c1c-2ccc2c1CCCC2(C)C [Tanshinone IIA]		5.9 ± 0.2	16.1 ± 13.5	29.4 ± 0.4			
C[C@H]1COC2=C1C(=O)C(=O)c1c2ccc2c1CCCC2(C)C [Cryptotanshinone]		6.4 ± 1.6	15.4 ± 10.3	59.9 ± 22			
Triton X-100					3 ± 1	3 ± 1	almost fully block formazan formation
Cc1coc2c1C(=O)C(=O)c1c-2ccc2c(C)cccc12 [Tanshinone I]	63.7 ± 4.5	19.1 ± 7.9	64	81.1 ± 6.9			
